The source of these data is PMC5217372, “Activation of SsoPK4, an Archaeal eIF2α Kinase Homolog, by Oxidized CoA” (Proteomes, 2015).

The subject of this experiment is rSsoPK4(284–635). Put plainly: Protein kinase activity assay (filter paper method, [γ-32P]ATP, 65 °C) of rSsoPK4(284–635). The experiment is classed as biochemical, Sulfolobus solfataricus. Particulars: for perturbed the activity of rSsoPK4: compound at 100 µM; for Inhibitor: effector at 100 µM, MBP as phosphoacceptor substrate. Here is the method: Protein kinase activity was routinely assayed by the filter paper method of Corbin and Reimann as modified by Lower and Kennelly. The final volume of the assays was typically 50 μL. The quantity of rSsoPK4 assayed ranged from 0.1 to 5.0 µg. Both MgCl2 and MnCl2 were included at a final concentration of 5 mM each. The final concentration of [γ-^32P]ATP was 100 μM. The specific activity of the [γ-^32P]ATP generally ranged from 2 to 5 × 10^15 cpm/mol. Phosphoacceptor proteins were generally present at a concentration of 0.5–1.0 µg/µL. The assay mixture was typically incubated for a period of 30 min to one hour at 65 °C in 50 mM MOPS pH 7.0. On occasion, the proteins within the assay mixture were resolved by SDS-PAGE in order to identify the specific polypeptides that were phosphorylated. Radiolabeled species were visualized using an Instant Imager from Packard (Downers Grove, IL, USA).

Structures are written as SMILES.

As to `Nc1ncnc2c1ncn2[C@@H]1O[C@H](CO)[C@H]2OP(=O)(O)O[C@H]21` [2ʹ,3ʹ-cAMP], the “perturbed the activity of rSsoPK4” value is given as “perturbed the activity” and the Inhibitor entry is given as “Y (designated as inhibitors (Y) if they were observed to stimulate or reduce, respectively, catalytic activity by greater than 20% relative to controls lacking added effectors)”.

As to `Nc1ncnc2c1ncn2[C@@H]1O[C@H](CO)[C@@H](OP(=O)(O)O)[C@H]1O` [3ʹ-AMP], the “perturbed the activity of rSsoPK4” value is recorded as “perturbed the activity” and the Inhibitor result is “Y (designated as inhibitors (Y) if they were observed to stimulate or reduce, respectively, catalytic activity by greater than 20% relative to controls lacking added effectors)”.

`Nc1ncnc2c1ncn2[C@@H]1O[C@H](COP(=O)(O)O)[C@@H](O)[C@H]1O` [5'AMP, 5ʹ-AMP]: the “perturbed the activity of rSsoPK4” value is recorded as “perturbed the activity” and the Inhibitor entry is on record as “Y (designated as inhibitors (Y) if they were observed to stimulate or reduce, respectively, catalytic activity by greater than 20% relative to controls lacking added effectors)”.

Consider `Nc1ccn([C@@H]2O[C@H](COP(=O)(O)O)[C@@H](O)[C@H]2O)c(=O)n1` [5ʹ-CMP], for which the Inhibitor result is “N (Where a change of ±20% or less in enzyme activity was observed, the compound was designated as non-inhibitory (N))”.

As to `Nc1nc2c(ncn2[C@@H]2O[C@H](COP(=O)(O)O)[C@@H](O)[C@H]2O)c(=O)[nH]1` [5ʹ-GMP], the Inhibitor entry is “N (Where a change of ±20% or less in enzyme activity was observed, the compound was designated as non-inhibitory (N))”.

As for `O=c1ccn([C@@H]2O[C@H](COP(=O)(O)O)[C@@H](O)[C@H]2O)c(=O)[nH]1` [5ʹ-UMP], the Inhibitor result is “N (Where a change of ±20% or less in enzyme activity was observed, the compound was designated as non-inhibitory (N))”.

For the compound `Nc1ncnc2c1ncn2[C@H]1C[C@H](O)[C@@H](COP(=O)(O)O)O1` [5ʹ-dAMP], the Inhibitor entry was “N (Where a change of ±20% or less in enzyme activity was observed, the compound was designated as non-inhibitory (N))”.

In the case of `Nc1ncnc2c1ncn2[C@@H]1O[C@H](COP(=O)(O)OP(=O)(O)O)[C@@H](O)[C@H]1O` [ADP], the “perturbed the activity of rSsoPK4” value was “perturbed the activity” and the Inhibitor entry is reported as “Y (designated as inhibitors (Y) if they were observed to stimulate or reduce, respectively, catalytic activity by greater than 20% relative to controls lacking added effectors)”.

For the compound `CC(=O)SCCNC(=O)CCNC(=O)[C@H](O)C(C)(C)COP(=O)(O)OP(=O)(O)OC[C@H]1O[C@@H](n2cnc3c(N)ncnc32)[C@H](O)[C@@H]1OP(=O)(O)O` [Acetyl-CoA], the Inhibitor entry is reported as “N (Where a change of ±20% or less in enzyme activity was observed, the compound was designated as non-inhibitory (N))”.

Take `Nc1ncnc2c1ncn2[C@@H]1O[C@H](COP(=O)(O)OS(=O)(=O)O)[C@@H](O)[C@H]1O` [Adenosine phosphosulfate]: the “perturbed the activity of rSsoPK4” value was “perturbed the activity” and the Inhibitor result is given as “Y (designated as inhibitors (Y) if they were observed to stimulate or reduce, respectively, catalytic activity by greater than 20% relative to controls lacking added effectors)”.

With `CC(C)(COP(=O)(O)OP(=O)(O)OC[C@H]1O[C@@H](n2cnc3c(N)ncnc32)[C@H](O)[C@@H]1OP(=O)(O)O)[C@@H](O)C(=O)NCCC(=O)NCCS` [CoASH, reduced CoA], the Inhibitor result is given as “N (Where a change of ±20% or less in enzyme activity was observed, the compound was designated as non-inhibitory (N))”.

Consider `Cc1cc2nc3c(=O)[nH]c(=O)nc-3n(C[C@H](O)[C@H](O)[C@H](O)COP(=O)(O)OP(=O)(O)OC[C@H]3O[C@@H](n4cnc5c(N)ncnc54)[C@H](O)[C@@H]3O)c2cc1C` [FAD^+], for which the Inhibitor entry is “N (Where a change of ±20% or less in enzyme activity was observed, the compound was designated as non-inhibitory (N))”.

Take `Nc1nc2c(ncn2[C@@H]2O[C@H](COP(=O)(O)OP(=O)(O)OP(=O)(O)O)[C@@H](O)[C@H]2O)c(=O)[nH]1` [GTP]: the Inhibitor entry is listed as “N (Where a change of ±20% or less in enzyme activity was observed, the compound was designated as non-inhibitory (N))”.
